# Data from ChEMBL document CHEMBL3885881, “DrugMatrix”.
# Species: Rattus norvegicus
# Assay type: toxicity, organism-based, Sprague-Dawley
# Conditions: in vivo, po, route oral GAVAGE, […]; for ABSOLUTE EOSINOPHIL / ABSOLUTE LYMPHOCYTE / ABSOLUTE MONOCYTE / ABSOLUTE SEGMENTED NEUTROPHIL / BASOPHIL / EOSINOPHIL / ERYTHROCYTE COUNT / HEMATOCRIT / HEMOGLOBIN / LEUKOCYTE COUNT / LYMPHOCYTE / MEAN CORPUSCULAR HEMOGLOBIN / MEAN CORPUSCULAR HEMOGLOBIN CONCENTRATION / MEAN CORPUSCULAR VOLUME / MONOCYTE / NEUTROPHIL / NUCLEATED RED BLOOD CELLS / PLATELET COUNT: tissue Blood; for ALANINE AMINOTRANSFERASE / ALBUMIN / ALKALINE PHOSPHATASE / ASPARTATE AMINOTRANSFERASE / BLOOD UREA NITROGEN / CARBON DIOXIDE / CHLORIDE / CHOLESTEROL / CREATINE PHOSPHOKINASE / CREATININE / GLUCOSE / LACTATE DEHYDROGENASE / LIPASE / PHOSPHORUS / POTASSIUM / SODIUM / TOTAL BILIRUBIN / TOTAL PROTEIN / URIC ACID: tissue Plasma
# [1] = 0 mg/kg, 6 h, vehicle control, dose level Control, time 0.25 day
# [2] = 0 mg/kg, 24 h, vehicle control, dose level Control, time 1 day
# [3] = 30 mg/kg, 6 h, dose level Low, time 0.25 day
# Description: DrugMatrix - Regimen: Single
smiles,measurement,setting,value
S=C=Nc1cccc2ccccc12 [1-NAPHTHYLISOTHIOCYANATE],ABSOLUTE EOSINOPHIL,[1],61.17 CELLS/uL
same,ABSOLUTE LYMPHOCYTE,[1],12625.83 CELLS/uL
same,ABSOLUTE MONOCYTE,[1],417.17 CELLS/uL
same,ABSOLUTE SEGMENTED NEUTROPHIL,[1],1595.83 CELLS/uL
same,BASOPHIL,[1],0%
same,EOSINOPHIL,[1],0.33%
same,ERYTHROCYTE COUNT,[1],5.46 x10E6/uL
same,HEMATOCRIT,[1],36.02%
same,HEMOGLOBIN,[1],13.55 G/DL
same,LEUKOCYTE COUNT,[1],14.7 x10E3/uL
same,LYMPHOCYTE,[1],85.83%
same,MEAN CORPUSCULAR HEMOGLOBIN,[1],24.87 pg
same,MEAN CORPUSCULAR HEMOGLOBIN CONCENTRATION,[1],37.65 G/DL
same,MEAN CORPUSCULAR VOLUME,[1],66.03 fL
same,MONOCYTE,[1],2.67%
same,NEUTROPHIL,[1],11.17%
same,NUCLEATED RED BLOOD CELLS,[1],0 /100WBC
same,PLATELET COUNT,[1],1072.33 x10E3/uL
same,ALANINE AMINOTRANSFERASE,[1],63.33 u/L
same,ALBUMIN,[1],4.58 G/DL
same,ALKALINE PHOSPHATASE,[1],285 u/L
same,ASPARTATE AMINOTRANSFERASE,[1],116.5 u/L
same,BLOOD UREA NITROGEN,[1],9.17 mg/dL
same,CARBON DIOXIDE,[1],18.83 mmol/L
same,CHLORIDE,[1],104.5 MEQ/L
same,CHOLESTEROL,[1],68.67 mg/dL
same,CREATINE PHOSPHOKINASE,[1],421 u/L
same,CREATININE,[1],0.58 mg/dL
same,GLUCOSE,[1],160.67 mg/dL
same,LACTATE DEHYDROGENASE,[1],396 u/L
same,LIPASE,[1],10.33 u/L
same,PHOSPHORUS,[1],12.25 mg/dL
same,POTASSIUM,[1],6.42 MEQ/L
same,SODIUM,[1],142.77 MEQ/L
same,TOTAL BILIRUBIN,[1],0.25 mg/dL
same,TOTAL PROTEIN,[1],5.48 G/DL
same,URIC ACID,[1],1.65 mg/dL
same,ABSOLUTE EOSINOPHIL,[2],23.83 CELLS/uL
same,ABSOLUTE LYMPHOCYTE,[2],11026.5 CELLS/uL
same,ABSOLUTE MONOCYTE,[2],98.5 CELLS/uL
same,ABSOLUTE SEGMENTED NEUTROPHIL,[2],667.83 CELLS/uL
same,BASOPHIL,[2],0%
same,EOSINOPHIL,[2],0.17%
same,ERYTHROCYTE COUNT,[2],4.92 x10E6/uL
same,HEMATOCRIT,[2],31.9%
same,HEMOGLOBIN,[2],12.6 G/DL
same,LEUKOCYTE COUNT,[2],11.82 x10E3/uL
same,LYMPHOCYTE,[2],93%
same,MEAN CORPUSCULAR HEMOGLOBIN,[2],25.7 pg
same,MEAN CORPUSCULAR HEMOGLOBIN CONCENTRATION,[2],39.57 G/DL
same,MEAN CORPUSCULAR VOLUME,[2],64.97 fL
same,MONOCYTE,[2],0.83%
same,NEUTROPHIL,[2],6%
same,NUCLEATED RED BLOOD CELLS,[2],0 /100WBC
same,PLATELET COUNT,[2],872.33 x10E3/uL
same,ALANINE AMINOTRANSFERASE,[2],82.67 u/L
same,ALBUMIN,[2],4.17 G/DL
same,ALKALINE PHOSPHATASE,[2],321.83 u/L
same,ASPARTATE AMINOTRANSFERASE,[2],99.5 u/L
same,BLOOD UREA NITROGEN,[2],13.33 mg/dL
same,CARBON DIOXIDE,[2],33.67 mmol/L
same,CHLORIDE,[2],99.83 MEQ/L
same,CHOLESTEROL,[2],64 mg/dL
same,CREATINE PHOSPHOKINASE,[2],275.33 u/L
same,CREATININE,[2],0.21 mg/dL
same,GLUCOSE,[2],146.17 mg/dL
same,LACTATE DEHYDROGENASE,[2],101 u/L
same,LIPASE,[2],9.83 u/L
same,PHOSPHORUS,[2],8.82 mg/dL
same,POTASSIUM,[2],5.51 MEQ/L
same,SODIUM,[2],143.2 MEQ/L
same,TOTAL BILIRUBIN,[2],0.18 mg/dL
same,TOTAL PROTEIN,[2],5.83 G/DL
same,URIC ACID,[2],0.63 mg/dL
same,ABSOLUTE EOSINOPHIL,[3],14.83 CELLS/uL
same,ABSOLUTE LYMPHOCYTE,[3],9035 CELLS/uL
same,ABSOLUTE MONOCYTE,[3],384.17 CELLS/uL
same,ABSOLUTE SEGMENTED NEUTROPHIL,[3],1199.33 CELLS/uL
same,BASOPHIL,[3],0%
same,EOSINOPHIL,[3],0.17%
same,ERYTHROCYTE COUNT,[3],5.6 x10E6/uL
same,HEMATOCRIT,[3],38.25%
same,HEMOGLOBIN,[3],13.8 G/DL
same,LEUKOCYTE COUNT,[3],10.63 x10E3/uL
same,LYMPHOCYTE,[3],85.5%
same,MEAN CORPUSCULAR HEMOGLOBIN,[3],24.68 pg
same,MEAN CORPUSCULAR HEMOGLOBIN CONCENTRATION,[3],36.08 G/DL
same,MEAN CORPUSCULAR VOLUME,[3],68.37 fL
same,MONOCYTE,[3],3.67%
same,NEUTROPHIL,[3],10.67%
same,NUCLEATED RED BLOOD CELLS,[3],0 /100WBC
same,PLATELET COUNT,[3],1129.33 x10E3/uL
same,ALANINE AMINOTRANSFERASE,[3],63.33 u/L
same,ALBUMIN,[3],4.7 G/DL
same,ALKALINE PHOSPHATASE,[3],419.67 u/L
same,ASPARTATE AMINOTRANSFERASE,[3],128.33 u/L
same,BLOOD UREA NITROGEN,[3],10.5 mg/dL
same,CARBON DIOXIDE,[3],14.83 mmol/L
same,CHLORIDE,[3],104.17 MEQ/L
same,CHOLESTEROL,[3],78.67 mg/dL
same,CREATINE PHOSPHOKINASE,[3],651.17 u/L
same,CREATININE,[3],0.27 mg/dL
same,GLUCOSE,[3],216.83 mg/dL
same,LACTATE DEHYDROGENASE,[3],402.17 u/L
same,LIPASE,[3],11.67 u/L
same,PHOSPHORUS,[3],17.25 mg/dL
same,POTASSIUM,[3],7.07 MEQ/L
same,SODIUM,[3],146.68 MEQ/L
same,TOTAL BILIRUBIN,[3],0.23 mg/dL
same,TOTAL PROTEIN,[3],6.17 G/DL
same,URIC ACID,[3],3.28 mg/dL
